Source: publication PMC8713283 (Journal of Medicinal Chemistry, 2021)
Several values for one entry are separate records, joined by “and”; a condition that tells them apart may be missing. Equal entries are not always repeated.

Columns and labels:
[1] = in vitro; conditions: PAMPA
[2] = tested on: P-gp (human MDR1); assay: in vitro; conditions: dog; for Papp A→B at 5 µM / Papp B→A at 5 µM: MDCK-MDR1; for efflux ratio at 5 µM: MDCK-MDR1, Efflux ratio B-A/A-B, MDCK-MDR1, 5 µM, N = 2
[3] = LPEester – LPEamide by amide–ester matched pairs
[4] = Log D(dec/w) shake flask partition coefficient; type: physicochemical; conditions: 1,9-decadiene/PBS; 1,9-decadiene and PBS pH 7.4 shake flask partition coefficient
[5] = human
[6] = target: T1, VHL + Brd3BD2 (Homo sapiens, UniProt P40337+Q15059); assay: FP competition, ternary binding to VHL with Brd3BD2; conditions: for ΔpKd: Log10(α) = pKd ternary - pKd binary; for Cooperativity α: α = Kd binary/Kd ternary
T1 construct: Brd3-BD2 (306–416); His6 (N, cleaved yes); made in house; host or cells: E. coli

[7] = target: T2, VHL + Brd2BD2 (Homo sapiens, UniProt P25440+P40337); assay: FP competition, ternary binding to VHL with Brd2BD2; conditions: for ΔpKd: Log10(α) = pKd ternary - pKd binary
T2 construct: Brd2-BD2 (344–455); His6 (N, cleaved yes); made in house; host or cells: E. coli

[8] = target: VHL + Brd4BD1 (Homo sapiens, UniProt O60885+P40337); conditions: for ΔpKd: Log10(α) = pKd ternary - pKd binary; for Cooperativity α: α = Kd binary/Kd ternary
[9] = target: T3, VHL + Brd4BD2 (Homo sapiens, UniProt O60885+P40337); type: binding; conditions: for ΔpKd: Log10(α) = pKd ternary - pKd binary
T3 construct: Brd4-BD2 (333–460); His6 (N, cleaved yes); made in house; host or cells: E. coli

[10] = target: VHL + Brd3BD1 (Homo sapiens, UniProt P40337+Q15059); conditions: for ΔpKd: Log10(α) = pKd ternary - pKd binary; for Cooperativity α: α = Kd binary/Kd ternary
[11] = target: T4, Brd2 (Homo sapiens, UniProt P25440); assay: Western blot degradation of Brd2 in HEK293 cells; type: cell-based
T4 construct: endogenous in cells; host or cells: HEK293

[12] = target: T5, Brd4 (Homo sapiens, UniProt O60885); assay: Western blot degradation of Brd4 in HEK293 cells; type: cell-based; conditions: HEK293, 4 h, 10 μM, N = 1
T5 construct: endogenous in cells; host or cells: HEK293

[13] = target: T6, VHL + Brd2BD1 (Homo sapiens, UniProt P25440+P40337); assay: FP competition, ternary binding to VHL with Brd2BD1
T6 construct: His6 (N, cleaved yes); made in house; host or cells: E. coli

| SMILES | Papp A→B at 5 µM [2] [×10⁻⁶ cm/s] | Papp B→A at 5 µM [2] [×10⁻⁶ cm/s] | efflux ratio at 5 µM [2] | ΔLPE [3] | logD hydrocarbon water [4] | Plasma stability [5] [%] | ΔpKd [6] | Cooperativity α [6] | ΔpKd [7] | ΔpKd [8] | Cooperativity α [8] | ΔpKd [9] | ΔpKd [10] | Cooperativity α [10] | other results |
| --- | --- | --- | --- | --- | --- | --- | --- | --- | --- | --- | --- | --- | --- | --- | --- |
| CCCC(=O)OCCCCCC(=O)N[C@H](C(=O)N1C[C@H](O)C[C@H]1C(=O)NCc1ccc(-c2scnc2C)cc1)C(C)(C)C [Compound 9, 6-(((S)-1-((2S,4R)-4-Hydroxy-2-((4-(4-methylthiazol-5-yl)benzyl)carbamoyl)pyrrolidin-1-yl)-3,3-dimethyl-1-oxobutan-2-yl)amino)-6-oxohexyl Butyrate] | 0.9 | 47 | 55 | 1.1 | -0.5 | 13 ± 1 |  |  |  |  |  |  |  |  | Papp [1]: 6.5 ×10⁻⁶ cm/s |
| Cc1ncsc1-c1ccc(CNC(=O)[C@@H]2C[C@@H](O)CN2C(=O)[C@@H](NC(=O)CCCCCOC(=O)CC23CC4CC(CC(C4)C2)C3)C(C)(C)C)cc1 [Compound 12, 6-(((S)-1-((2S,4R)-4-Hydroxy-2-((4-(4-methylthiazol-5-yl)benzyl)carbamoyl)pyrrolidin-1-yl)-3,3-dimethyl-1-oxobutan-2-yl)amino)-6-oxohexyl 2-(adamantan-1-yl)acetate] |  | 4.5 |  | 1.8 | 2.4 | 80 ± 11 |  |  |  |  |  |  |  |  |  |
| Cc1ncsc1-c1ccc(CNC(=O)[C@@H]2C[C@@H](O)CN2C(=O)[C@@H](NC(=O)CCCCCOC(=O)CC(c2ccccc2)c2ccccc2)C(C)(C)C)cc1 [Compound 13, 6-(((S)-1-((2S,4R)-4-Hydroxy-2-((4-(4-methylthiazol-5-yl)benzyl)carbamoyl)pyrrolidin-1-yl)-3,3-dimethyl-1-oxobutan-2-yl)amino)-6-oxohexyl 3,3-diphenylpropanoate] | 0.2 | 13.9 | 84 | 1.6 | 1.9 | 58 ± 6 |  |  |  |  |  |  |  |  |  |
| Cc1ncsc1-c1ccc(CNC(=O)[C@@H]2C[C@@H](O)CN2C(=O)[C@@H](NC(=O)COCCOCCOCCNC(=O)C[C@@H]2N=C(c3ccc(Cl)cc3)c3c(sc(C)c3C)-n3c(C)nnc32)C(C)(C)C)cc1 [Compound 21, MZ1] |  | 1.5 |  |  |  |  | 0.73 | 5.3 | 1.46 | 0.62 | 4.2 | 1.73 | 0.45 | 2.8 | PAMPA Pe: 0.01 ×10^–6 cm/s |
| Cc1ncsc1-c1ccc([C@H](C)NC(=O)[C@@H]2C[C@@H](O)CN2C(=O)[C@@H](NC(=O)COCCCOCCNC(=O)C[C@@H]2N=C(c3ccc(Cl)cc3)c3c(sc(C)c3C)-n3c(C)nnc32)C(C)(C)C)cc1 [Compound 22, ARV-771] |  |  |  |  |  |  | 0.64 | 4.3 | 0.66 | 0.42 | 2.6 | 1.12 | 0.30 | 2.0 | pDC50 Brd2 ([11]; HEK293, 4 h, 1 μM to 100 pM, mean ± S.E., three experiments): 6.9 ± 0.2 and 7.4 ± 0.1; DC50 ([11]; read-out: DC50 Brd2, HEK293 cells): 42 nM; Hook effect, Brd4 protein levels [12]: exhibited a hook effect; ΔpKd ([13]; Log10(α) = pKd ternary - pKd binary): 0.38; Cooperativity α ([13]; α = Kd binary/Kd ternary): 2.4; Kd ([7]; read-out: pKd ternary (converted)): 7.41 nM; Cooperativity α ([7]; α = Kd binary/Kd ternary): 4.6; Cooperativity α ([9]; α = Kd binary/Kd ternary): 13 |
